From ChEMBL document CHEMBL4261593, “Synthesis and antibacterial activity of novel 3-O-arylalkylcarbamoyl-3-O-descladinosyl-9-O-(2-chlorobenzyl)oxime clarithromycin derivatives” (2018)
≈ marks a conversion by molar mass, not a printed value.

Columns and labels:
Type in all cases: functional
Escherichia coli = assay: Antibacterial activity against penicillin-susceptible Escherichia coli ATCC 25922 after 24 hrs by broth dilution assay; details: ATCC 25922, 24 h
Bacillus subtilis = assay: Antibacterial activity against penicillin-susceptible Bacillus subtilis ATCC 9372 after 24 hrs by broth dilution assay; details: ATCC 9372, 24 h
Pseudomonas aeruginosa = assay: Antibacterial activity against penicillin-susceptible Pseudomonas aeruginosa ATCC 27853 after 24 hrs by broth dilution assay; details: ATCC 27853, 24 h
Streptococcus pyogenes [1] = assay: Antibacterial activity against erythromycin-susceptible Streptococcus pyogenes 1 after 24 hrs by broth dilution assay; details: Streptococcus pyogenes, 1, 24 h
Streptococcus pneumoniae [2] = assay: Antibacterial activity against erythromycin-resistant Streptococcus pneumoniae A22072 expressing mefA gene after 24 hrs by broth dilution assay; details: A22072, 24 h
Staphylococcus aureus [3] = assay: Antibacterial activity against penicillin-resistant Staphylococcus aureus ATCC 31007 after 24 hrs by broth dilution assay; details: ATCC 31007, 24 h
Staphylococcus aureus [4] = assay: Antibacterial activity against […] Staphylococcus aureus ATCC 29213 after 24 hrs by broth dilution assay; details: ATCC 29213, 24 h
Staphylococcus aureus [5] = assay: Antibacterial activity against erythromycin-susceptible Staphylococcus aureus ATCC 25923 after 24 hrs by broth dilution assay; details: ATCC 25923, 24 h
Streptococcus pneumoniae [6] = assay: Antibacterial activity against erythromycin-resistant Streptococcus pneumoniae AB11 expressing ermB and mefA genes after 24 hrs by broth dilution assay; details: AB11, 24 h
Streptococcus pneumoniae [7] = assay: Antibacterial activity against erythromycin-resistant Streptococcus pneumoniae B1 expressing ermB gene after 24 hrs by broth dilution assay; details: B1, 24 h
Streptococcus pyogenes [8] = assay: Antibacterial activity against erythromycin-resistant Streptococcus pyogenes 2 after 24 hrs by broth dilution assay; details: Streptococcus pyogenes, 2, 24 h

SMILES	MIC (Escherichia coli) [µg/mL]	MIC (Bacillus subtilis) [µg/mL]	MIC (Pseudomonas aeruginosa) [µg/mL]	MIC (Streptococcus pyogenes [1]) [µg/mL]	MIC (Streptococcus pneumoniae [2]) [µg/mL]	MIC (Staphylococcus aureus [3]) [µg/mL]	MIC (Staphylococcus aureus [4]) [µg/mL]	MIC (Staphylococcus aureus [5]) [µg/mL]	MIC (Streptococcus pneumoniae [6]) [µg/mL]	MIC (Streptococcus pneumoniae [7]) [µg/mL]	MIC (Streptococcus pyogenes [8]) [µg/mL]
C#CCNC(=O)O[C@H]1[C@H](C)[C@@H](O[C@@H]2O[C@H](C)C[C@H](N(C)C)[C@H]2O)[C@](C)(OC)C[C@@H](C)/C(=N/OCc2ccccc2Cl)[C@H](C)[C@@H](O)[C@](C)(O)[C@@H](CC)OC(=O)[C@@H]1C	128 (≈ 158 µM)	2 (≈ 2.47 µM)	128 (≈ 158 µM)	4 (≈ 4.94 µM)	–	–	–	–	–	–	–
CC[C@H]1OC(=O)[C@H](C)[C@@H](OC(=O)NC2CCCCC2)[C@H](C)[C@@H](O[C@@H]2O[C@H](C)C[C@H](N(C)C)[C@H]2O)[C@](C)(OC)C[C@@H](C)/C(=N/OCc2ccccc2Cl)[C@H](C)[C@@H](O)[C@]1(C)O	128 (≈ 150 µM)	4 (≈ 4.68 µM)	128 (≈ 150 µM)	2 (≈ 2.34 µM)	1 (≈ 1.17 µM)	8 (≈ 9.36 µM)	128 (≈ 150 µM)	16 (≈ 18.7 µM)	128 (≈ 150 µM)	128 (≈ 150 µM)	16 (≈ 18.7 µM)
CC[C@H]1OC(=O)[C@H](C)[C@@H](OC(=O)NCCc2ccc(F)cc2)[C@H](C)[C@@H](O[C@@H]2O[C@H](C)C[C@H](N(C)C)[C@H]2O)[C@](C)(OC)C[C@@H](C)/C(=N/OCc2ccccc2Cl)[C@H](C)[C@@H](O)[C@]1(C)O	128 (≈ 143 µM)	2 (≈ 2.24 µM)	128 (≈ 143 µM)	2 (≈ 2.24 µM)	1 (≈ 1.12 µM)	4 (≈ 4.47 µM)	128 (≈ 143 µM)	4 (≈ 4.47 µM)	128 (≈ 143 µM)	128 (≈ 143 µM)	8 (≈ 8.94 µM)
CC[C@H]1OC(=O)[C@H](C)[C@@H](OC(=O)NCCc2ccc(OC)cc2)[C@H](C)[C@@H](O[C@@H]2O[C@H](C)C[C@H](N(C)C)[C@H]2O)[C@](C)(OC)C[C@@H](C)/C(=N/OCc2ccccc2Cl)[C@H](C)[C@@H](O)[C@]1(C)O	128 (≈ 141 µM)	2 (≈ 2.21 µM)	128 (≈ 141 µM)	2 (≈ 2.21 µM)	1 (≈ 1.1 µM)	4 (≈ 4.41 µM)	128 (≈ 141 µM)	16 (≈ 17.6 µM)	128 (≈ 141 µM)	128 (≈ 141 µM)	8 (≈ 8.82 µM)
CC[C@H]1OC(=O)[C@H](C)[C@@H](OC(=O)NCCc2ccccc2)[C@H](C)[C@@H](O[C@@H]2O[C@H](C)C[C@H](N(C)C)[C@H]2O)[C@](C)(OC)C[C@@H](C)/C(=N/OCc2ccccc2Cl)[C@H](C)[C@@H](O)[C@]1(C)O	128 (≈ 146 µM)	8 (≈ 9.13 µM)	128 (≈ 146 µM)	8 (≈ 9.13 µM)	2 (≈ 2.28 µM)	8 (≈ 9.13 µM)	128 (≈ 146 µM)	16 (≈ 18.3 µM)	128 (≈ 146 µM)	128 (≈ 146 µM)	16 (≈ 18.3 µM)
CCCCCCNC(=O)O[C@H]1[C@H](C)[C@@H](O[C@@H]2O[C@H](C)C[C@H](N(C)C)[C@H]2O)[C@](C)(OC)C[C@@H](C)/C(=N/OCc2ccccc2Cl)[C@H](C)[C@@H](O)[C@](C)(O)[C@@H](CC)OC(=O)[C@@H]1C	128 (≈ 149 µM)	2 (≈ 2.33 µM)	128 (≈ 149 µM)	2 (≈ 2.33 µM)	1 (≈ 1.17 µM)	4 (≈ 4.67 µM)	128 (≈ 149 µM)	16 (≈ 18.7 µM)	128 (≈ 149 µM)	128 (≈ 149 µM)	8 (≈ 9.34 µM)
CC[C@H]1OC(=O)[C@H](C)[C@@H](OC(=O)NCc2ccc(F)cc2)[C@H](C)[C@@H](O[C@@H]2O[C@H](C)C[C@H](N(C)C)[C@H]2O)[C@](C)(OC)C[C@@H](C)/C(=N/OCc2ccccc2Cl)[C@H](C)[C@@H](O)[C@]1(C)O	128 (≈ 145 µM)	2 (≈ 2.27 µM)	128 (≈ 145 µM)	2 (≈ 2.27 µM)	1 (≈ 1.14 µM)	4 (≈ 4.54 µM)	128 (≈ 145 µM)	4 (≈ 4.54 µM)	128 (≈ 145 µM)	128 (≈ 145 µM)	8 (≈ 9.09 µM)
CC[C@H]1OC(=O)[C@H](C)[C@@H](OC(=O)NCCc2ccc(OC)c(OC)c2)[C@H](C)[C@@H](O[C@@H]2O[C@H](C)C[C@H](N(C)C)[C@H]2O)[C@](C)(OC)C[C@@H](C)/C(=N/OCc2ccccc2Cl)[C@H](C)[C@@H](O)[C@]1(C)O	128 (≈ 137 µM)	4 (≈ 4.27 µM)	128 (≈ 137 µM)	1 (≈ 1.07 µM)	1 (≈ 1.07 µM)	8 (≈ 8.54 µM)	128 (≈ 137 µM)	8 (≈ 8.54 µM)	128 (≈ 137 µM)	128 (≈ 137 µM)	16 (≈ 17.1 µM)
CC[C@H]1OC(=O)[C@H](C)[C@@H](OC(=O)NCc2ccco2)[C@H](C)[C@@H](O[C@@H]2O[C@H](C)C[C@H](N(C)C)[C@H]2O)[C@](C)(OC)C[C@@H](C)/C(=N/OCc2ccccc2Cl)[C@H](C)[C@@H](O)[C@]1(C)O	128 (≈ 150 µM)	4 (≈ 4.69 µM)	128 (≈ 150 µM)	4 (≈ 4.69 µM)	1 (≈ 1.17 µM)	8 (≈ 9.38 µM)	128 (≈ 150 µM)	16 (≈ 18.8 µM)	128 (≈ 150 µM)	128 (≈ 150 µM)	16 (≈ 18.8 µM)
CC[C@H]1OC(=O)[C@H](C)[C@@H](OC(=O)NCc2ccccc2Cl)[C@H](C)[C@@H](O[C@@H]2O[C@H](C)C[C@H](N(C)C)[C@H]2O)[C@](C)(OC)C[C@@H](C)/C(=N/OCc2ccccc2Cl)[C@H](C)[C@@H](O)[C@]1(C)O	128 (≈ 143 µM)	2 (≈ 2.23 µM)	128 (≈ 143 µM)	4 (≈ 4.46 µM)	1 (≈ 1.11 µM)	4 (≈ 4.46 µM)	128 (≈ 143 µM)	8 (≈ 8.92 µM)	128 (≈ 143 µM)	128 (≈ 143 µM)	16 (≈ 17.8 µM)
CC[C@H]1OC(=O)[C@H](C)[C@@H](OC(=O)NCCc2cccc(OC)c2)[C@H](C)[C@@H](O[C@@H]2O[C@H](C)C[C@H](N(C)C)[C@H]2O)[C@](C)(OC)C[C@@H](C)/C(=N/OCc2ccccc2Cl)[C@H](C)[C@@H](O)[C@]1(C)O	128 (≈ 141 µM)	4 (≈ 4.41 µM)	128 (≈ 141 µM)	2 (≈ 2.21 µM)	1 (≈ 1.1 µM)	4 (≈ 4.41 µM)	128 (≈ 141 µM)	8 (≈ 8.82 µM)	128 (≈ 141 µM)	128 (≈ 141 µM)	8 (≈ 8.82 µM)
CCNC(=O)O[C@H]1[C@H](C)[C@@H](O[C@@H]2O[C@H](C)C[C@H](N(C)C)[C@H]2O)[C@](C)(OC)C[C@@H](C)/C(=N/OCc2ccccc2Cl)[C@H](C)[C@@H](O)[C@](C)(O)[C@@H](CC)OC(=O)[C@@H]1C	128 (≈ 160 µM)	8 (≈ 9.99 µM)	128 (≈ 160 µM)	2 (≈ 2.5 µM)	1 (≈ 1.25 µM)	16 (≈ 20 µM)	128 (≈ 160 µM)	16 (≈ 20 µM)	128 (≈ 160 µM)	128 (≈ 160 µM)	32 (≈ 40 µM)
CC[C@H]1OC(=O)[C@H](C)[C@@H](OC(=O)NCc2ccccc2OC)[C@H](C)[C@@H](O[C@@H]2O[C@H](C)C[C@H](N(C)C)[C@H]2O)[C@](C)(OC)C[C@@H](C)/C(=N/OCc2ccccc2Cl)[C@H](C)[C@@H](O)[C@]1(C)O	128 (≈ 143 µM)	4 (≈ 4.48 µM)	128 (≈ 143 µM)	4 (≈ 4.48 µM)	1 (≈ 1.12 µM)	4 (≈ 4.48 µM)	128 (≈ 143 µM)	16 (≈ 17.9 µM)	128 (≈ 143 µM)	128 (≈ 143 µM)	16 (≈ 17.9 µM)
CC[C@H]1OC(=O)[C@H](C)[C@@H](OC(=O)NCc2ccc(OC)cc2)[C@H](C)[C@@H](O[C@@H]2O[C@H](C)C[C@H](N(C)C)[C@H]2O)[C@](C)(OC)C[C@@H](C)/C(=N/OCc2ccccc2Cl)[C@H](C)[C@@H](O)[C@]1(C)O	128 (≈ 143 µM)	4 (≈ 4.48 µM)	128 (≈ 143 µM)	4 (≈ 4.48 µM)	2 (≈ 2.24 µM)	8 (≈ 8.96 µM)	128 (≈ 143 µM)	16 (≈ 17.9 µM)	128 (≈ 143 µM)	128 (≈ 143 µM)	16 (≈ 17.9 µM)
CC[C@H]1OC(=O)[C@H](C)[C@@H](OC(=O)NC2CCCC2)[C@H](C)[C@@H](O[C@@H]2O[C@H](C)C[C@H](N(C)C)[C@H]2O)[C@](C)(OC)C[C@@H](C)/C(=N/OCc2ccccc2Cl)[C@H](C)[C@@H](O)[C@]1(C)O	128 (≈ 152 µM)	4 (≈ 4.76 µM)	128 (≈ 152 µM)	2 (≈ 2.38 µM)	0.5 (≈ 0.595 µM)	8 (≈ 9.52 µM)	128 (≈ 152 µM)	16 (≈ 19 µM)	128 (≈ 152 µM)	128 (≈ 152 µM)	16 (≈ 19 µM)
CC[C@H]1OC(=O)[C@H](C)[C@@H](OC(=O)NCC(C)C)[C@H](C)[C@@H](O[C@@H]2O[C@H](C)C[C@H](N(C)C)[C@H]2O)[C@](C)(OC)C[C@@H](C)/C(=N/OCc2ccccc2Cl)[C@H](C)[C@@H](O)[C@]1(C)O	128 (≈ 154 µM)	2 (≈ 2.41 µM)	128 (≈ 154 µM)	1 (≈ 1.21 µM)	1 (≈ 1.21 µM)	8 (≈ 9.66 µM)	128 (≈ 154 µM)	8 (≈ 9.66 µM)	128 (≈ 154 µM)	128 (≈ 154 µM)	16 (≈ 19.3 µM)
CC[C@H]1OC(=O)[C@H](C)[C@@H](OC(=O)NCc2ccc(N)cc2)[C@H](C)[C@@H](O[C@@H]2O[C@H](C)C[C@H](N(C)C)[C@H]2O)[C@](C)(OC)C[C@@H](C)/C(=N/OCc2ccccc2Cl)[C@H](C)[C@@H](O)[C@]1(C)O	128 (≈ 146 µM)	4 (≈ 4.56 µM)	128 (≈ 146 µM)	1 (≈ 1.14 µM)	0.5 (≈ 0.57 µM)	16 (≈ 18.2 µM)	128 (≈ 146 µM)	16 (≈ 18.2 µM)	128 (≈ 146 µM)	128 (≈ 146 µM)	16 (≈ 18.2 µM)
CC[C@H]1OC(=O)[C@H](C)[C@@H](OC(=O)NCc2ccc(C)cc2)[C@H](C)[C@@H](O[C@@H]2O[C@H](C)C[C@H](N(C)C)[C@H]2O)[C@](C)(OC)C[C@@H](C)/C(=N/OCc2ccccc2Cl)[C@H](C)[C@@H](O)[C@]1(C)O	128 (≈ 146 µM)	2 (≈ 2.28 µM)	128 (≈ 146 µM)	2 (≈ 2.28 µM)	1 (≈ 1.14 µM)	4 (≈ 4.56 µM)	128 (≈ 146 µM)	8 (≈ 9.13 µM)	128 (≈ 146 µM)	128 (≈ 146 µM)	16 (≈ 18.3 µM)
